Reference: patent publication US4505929A, “Sulfur-substituted diphenyl ethers having antiviral activity” (The Dow Chemical Company, priority 1982, dated 1985)
Converted amounts (≈) assume the structure as drawn. Read-outs that look alike come from different tables or passages of the source.

Tests used:
Type in all cases: cell-based
[1] = system: rhinovirus type 2 (RV-2); experiment: Tissue culture antiviral test (HeLa cells), RV-2; settings: Enterovirus, 48 and 72 hours post-treatment, read-out: Lowest concentration necessary to cause a 50 percent reduction in cytopathic effect, RV-2
Method: (§1) Monolayered HeLa cells in 16 millimeter (mm) tissue culture dishes were treated with 1 ml of culture medium (Eagles medium supplemented with fetal calf serum) containing subject compound at an appropriate concentration or containing no compound at all. Culture media such as those described herein are more fully described in standard texts, as for example, Kuchler's Biochemical Methods in Cell Culture and Virology, Dowden, Hutchinson and Ross, Inc., Stroudsberg, PA (1977). Following treatment, cells were challenged with 0.05 ml of rhinovirus type 1A (RV-1A), rhinovirus type 2 (RV-2) or Coxsackie A21 virus (Cox A21) in culture medium. Some of the compounds were also tested against rhinovirus type 5 (RV-5), rhinovirus type 8 (RV-8) or rhinovirus type 64 (RV-64). Cell controls received no viruses.
(§2) ^xx Lowest concentration of the compound (μg/ml) necessary to caus
(§3) a 50 percent reduction in cytopathic effect.

[2] = Cytotoxicity to HeLa cells in tissue culture testing; settings: human
Method: as §1
^x Cytotoxicity figures represent the concentration of the compound,
micrograms/milliliter (μg/ml) found to be toxic to the cell.
means "approximately "; "<<" "considerably less than " and "G.I." means

[3] = system: Coxsackie A21 virus (Cox A21); experiment: Tissue culture antiviral test (HeLa cells), Cox A21; settings: 48 and 72 hours post-treatment, read-out: Lowest concentration necessary to cause a 50 percent reduction in cytopathic effect, Cox A21
Method: as §1, §2, §3

[4] = system: rhinovirus type 1A (RV-1A); experiment: Tissue culture antiviral test (HeLa cells), RV-1A; settings: Enterovirus, 48 and 72 hours post-treatment, read-out: Lowest concentration necessary to cause a 50 percent reduction in cytopathic effect, RV-1A
Method: as §1, §2, §3

[5] = system: rhinovirus type 5 (RV-5); experiment: Tissue culture antiviral test (HeLa cells), RV-5; settings: Enterovirus, 48 and 72 hours post-treatment, read-out: Lowest concentration necessary to cause a 50 percent reduction in cytopathic effect, RV-5
Method: as §1, §2, §3

[6] = system: rhinovirus type 8 (RV-8); experiment: Tissue culture antiviral test (HeLa cells), RV-8; settings: Enterovirus, 48 and 72 hours post-treatment, read-out: Lowest concentration necessary to cause a 50 percent reduction in cytopathic effect, RV-8
Method: as §1, §2, §3

[7] = system: rhinovirus type 64 (RV-64); experiment: Tissue culture antiviral test (HeLa cells), RV-64; settings: Enterovirus, 48 and 72 hours post-treatment, read-out: Lowest concentration necessary to cause a 50 percent reduction in cytopathic effect, RV-64
Method: as §1, §2, §3

[8] = G.I. = growth inhibition: at the concentration shown the compound inhibited growth of the tissue culture, read-out: Cytotoxicity (G.I.)
[9] = concentration found to be toxic to the cell, observed at 48 and 72 hours, read-out: Cytotoxicity

SMILES | EC50 [1] | MCC [2, 8] | EC50 [3] | EC50 [4] | MCC [2, 9] | EC50 [5] | EC50 [6] | EC50 [7]
CS(=O)(=O)c1ccc(Oc2ccc(Cl)cc2)cc1 [Example 2, 4-(4-(Methylsulfonyl)phenoxy)-1-chlorobenzene] | 1.25 mg/L (≈ 4.42 µM) | 10 µg/mL | 0.625 mg/L (≈ 2.21 µM) | 1.25 mg/L (≈ 4.42 µM) | – | – | – | –
CC(=O)c1ccc(Oc2ccc(S(C)(=O)=O)cc2)cc1 [Example 3, 1-(4-(4-(Methylsulfonyl)phenoxy)phenyl)ethanone] | 12.5 mg/L (≈ 43.1 µM) | – | < 6.25 mg/L | 25 mg/L (≈ 86.1 µM) | 50 µg/mL | 25 mg/L (≈ 86.1 µM) | 25 mg/L (≈ 86.1 µM) | < 6.25 mg/L
CS(=O)(=O)c1ccc(Oc2ccc(C(=O)c3ccccc3)cc2)cc1 [Example 4, (4-(4-(Methylsulfonyl)phenoxy)phenyl)phenylmethanone] | 50 mg/L (≈ 142 µM) | – | < 6.25 mg/L | – | > 100 µg/mL | – | – | 100 mg/L (≈ 284 µM)
CSc1ccc(Oc2ccc(C#N)cc2)cc1 [Example 5, 4-(4-(Methylthio)phenoxy)benzonitrile] | < 3.12 mg/L | – | < 3.12 mg/L | < 3.12 mg/L | 6.25 µg/mL | – | – | –
C[S+]([O-])c1ccc(Oc2ccc(Cl)c(Cl)c2)cc1 (centres unmarked) [Example 6, 1,2-Dichloro-4-(4-(methylsulfinyl)phenoxy)benzene] | < 0.31 mg/L | – | – | < 0.31 mg/L | 12.5 µg/mL | – | – | < 0.31 mg/L
C[S+]([O-])c1ccc(Oc2ccc(C#N)cc2)cc1 (centres unmarked) [Example 7, 4-(4-(Methylsulfinyl)phenoxy)benzonitrile] | 3.12 mg/L (≈ 12.1 µM) | – | 3.12 mg/L (≈ 12.1 µM) | 3.12 mg/L (≈ 12.1 µM) | 25 µg/mL | – | – | –
CS(=O)(=O)c1ccc(Oc2ccc(Br)cc2)cc1 [Example 9, 1-Bromo-4-(4-(methylsulfonyl)phenoxy)benzene] | < 3.12 mg/L | – | < 3.12 mg/L | < 3.12 mg/L | 12.5 µg/mL | 12.5 mg/L (≈ 38.2 µM) | 12.5 mg/L (≈ 38.2 µM) | –
O=S(=O)(c1ccccc1)c1ccc(Oc2ccc(Cl)c(Cl)c2)cc1 [Example 10, 4-(4-(Phenylsulfonyl)phenoxy)-1,2-dichlorobenzene] | 6.25 mg/L (≈ 16.5 µM) | – | 6.25 mg/L (≈ 16.5 µM) | – | 50 µg/mL | – | – | –
CN(C)S(=O)(=O)c1ccc(Oc2ccc(S(=O)(=O)c3ccccc3)cc2)cc1 [Example 11, N,N-Dimethyl-4-(4-(phenylsulfonyl)phenoxy)benzenesulfonamide] | 0.625 mg/L (≈ 1.5 µM) | – | 0.625 mg/L (≈ 1.5 µM) | 0.625 mg/L (≈ 1.5 µM) | 1.25 µg/mL | – | – | –
CN(C)S(=O)(=O)c1ccc(Oc2ccc(S(C)(=O)=O)cc2)cc1 [Example 12, N,N-Dimethyl-4-(4-(methylsulfonyl)phenoxy)benzenesulfonamide] | – | 100 µg/mL | 50 mg/L (≈ 141 µM) | – | – | – | – | –
CCN(CC)S(=O)(=O)c1ccc(Oc2ccc(S(C)(=O)=O)cc2)cc1 [Example 13, N,N-Diethyl-4-(4-(methylsulfonyl)phenoxy)benzenesulfonamide] | – | 100 µg/mL | 25 mg/L (≈ 65.2 µM) | 50 mg/L (≈ 130 µM) | – | – | – | –
CS(=O)(=O)c1ccc(Oc2ccc(Cl)c(Cl)c2)c(Cl)c1 [Example 14, 4-(2-Chloro-4-(methylsulfonyl)phenoxy)-1,2-dichlorobenzene] | ≤ 6.25 mg/L | – | 12.5 mg/L (≈ 35.5 µM) | 12.5 mg/L (≈ 35.5 µM) | 50 µg/mL | – | – | –
CS(=O)(=O)c1ccc(Oc2ccc(Cl)c(Cl)c2)c([N+](=O)[O-])c1 [Example 15, 4-(4-(Methylsulfonyl)-2-nitrophenoxy)-1,2-dichlorobenzene] | 6.25 mg/L (≈ 17.3 µM) | – | – | – | > 100 µg/mL | – | – | –
CS(=O)(=O)c1ccc(Oc2ccc(Cl)c(Cl)c2)c(N)c1 [Example 16, 2-(3,4-Dichlorophenoxy)-5-(methylsulfonyl)benzenamine] | 6.25 mg/L (≈ 18.8 µM) | – | 6.25 mg/L (≈ 18.8 µM) | < 6.25 mg/L | ≤ 6.25 µg/mL | – | – | –
CS(=O)(=O)c1ccc(Oc2ccc(Cl)c(Cl)c2)c(C#N)c1 [Example 17, 2-(3,4-Dichlorophenoxy)-5-(methylsulfonyl)benzonitrile] | 25 mg/L (≈ 73.1 µM) | – | 12.5 mg/L (≈ 36.5 µM) | 12.5 mg/L (≈ 36.5 µM) | > 100 µg/mL | – | – | –
COc1ccc(Oc2ccc(S(C)(=O)=O)cc2)cc1 [Example 18, 4-(4-(Methylsulfonyl)phenoxy)-1-methoxybenzene] | 12.5 mg/L (≈ 44.9 µM) | – | 25 mg/L (≈ 89.8 µM) | 6.25 mg/L (≈ 22.5 µM) | > 50 µg/mL | – | – | 12.5 mg/L (≈ 44.9 µM)
Cc1cc(Oc2ccc(Cl)c(Cl)c2)ccc1S(C)(=O)=O [Example 19, 4-(3-Methyl-4-(methylsulfonyl)phenoxy)-1,2-dichlorobenzene] | 6.25 mg/L (≈ 18.9 µM) | – | – | < 3.12 mg/L | > 50 µg/mL | 12.5 mg/L (≈ 37.7 µM) | – | < 3.12 mg/L
CS(=O)(=O)c1ccc(Oc2ccc(O)cc2)cc1 [Example 21, 4-(4-(Methylsulfonyl)phenoxy)phenol] | ~25 mg/L (≈ 94.6 µM) | – | – | ~25 mg/L (≈ 94.6 µM) | 25 µg/mL | – | – | –
CS(=O)(=O)c1ccc(Oc2ccc(OC(F)(F)C(Cl)Cl)cc2)cc1 [Example 22, 1-(2,2-Dichloro-1,1-difluoroethoxy)-4-(4-(methylsulfonyl)phenoxy)benzene] | 1.25 mg/L (≈ 3.15 µM) | – | 0.625 mg/L (≈ 1.57 µM) | 2.5 mg/L (≈ 6.29 µM) | 2.5 µg/mL | ~1.25 mg/L (≈ 3.15 µM) | – | –
CCN(CC)CCOc1ccc(Oc2ccc(S(C)(=O)=O)cc2)cc1 [Example 24] | – | – | – | 1.25 mg/L (≈ 3.44 µM) | ≤ 20 µg/mL | 2.5 mg/L (≈ 6.88 µM) | – | –
O=S(=O)(c1ccc(Oc2ccc(Cl)c(Cl)c2)cc1)C(F)(F)F [Example 25, 4-(4-((Trifluoromethyl)sulfonyl)phenoxy)-1,2-dichlorobenzene] | 6.25 mg/L (≈ 16.8 µM) | – | < 3.12 mg/L | 12.5 mg/L (≈ 33.7 µM) | > 50 µg/mL | – | – | –
CSc1ccc(Oc2ccc([N+](=O)[O-])cc2)cc1 [Example 27, 1-(Methylthio)-4-(4-nitrophenoxy)benzene] | ≤ 6.25 mg/L | – | ≤ 6.25 mg/L | 6.25 mg/L (≈ 23.9 µM) | 12.5 µg/mL | – | – | –
CSc1ccc(Oc2ccc([N+](=O)[O-])cc2[N+](=O)[O-])cc1 [Example 28, 1-(4-(Methylthio)phenoxy)-2,4-dinitrobenzene] | < 6.25 mg/L | 50 to 100 µg/mL | ≤ 6.25 mg/L | ≤ 6.25 mg/L | – | – | – | –
C[S+]([O-])c1ccc(Oc2ccc([N+](=O)[O-])cc2)cc1 (centres unmarked) [Example 29, 1-(Methylsulfinyl)-4-(4-nitrophenoxy)benzene] | ≤ 6.25 mg/L | – | < 6.25 mg/L | ≤ 6.25 mg/L | 25 µg/mL | – | – | –
C[S+]([O-])c1ccc(Oc2ccc([N+](=O)[O-])cc2[N+](=O)[O-])cc1 (centres unmarked) [Example 30, 1-(4-(Methylsulfinyl)phenoxy)-2,4-dinitrobenzene] | ~6.25 mg/L (≈ 19.4 µM) | – | 6.25 mg/L (≈ 19.4 µM) | – | 12.5 µg/mL | – | – | –
CS(=O)(=O)c1ccc(Oc2ccc([N+](=O)[O-])cc2[N+](=O)[O-])cc1 [Example 31, 1-(4-(Methylsulfonyl)phenoxy)-2,4-dinitrobenzene] | ~12.5 mg/L (≈ 36.9 µM) | – | ≤ 6.25 mg/L | ~12.5 mg/L (≈ 36.9 µM) | 25 µg/mL | – | – | –
CS(=O)(=O)c1ccc(Oc2ccc([N+](=O)[O-])cc2)cc1 [Example 32, 1-(Methylsulfonyl)-4-(4-nitrophenoxy)benzene] | ≤ 6.25 mg/L | – | < 6.25 mg/L | 12.5 mg/L (≈ 42.6 µM) | 50 µg/mL | – | – | –
